The record followed here is patent US20140155376A1, “PYRROLOPYRAZINE KINASE INHIBITORS” (Hoffmann-La Roche Inc., priority 2010, published 2014).

Each structure is given as a SMILES string.

The target in this assay is T1, JAK3 (recombinant human kinase domain; h-jak3(810-1124)) (Homo sapiens, UniProt P52333).
T1 construct: h-jak3(810- 1124)-sf9-c; made in house; host or cells: Sf9 insect cells
The assay is described as follows: Determination of IC50 of Janus Kinase (JAK) inhibition: JAK3, radioactive end-point assay with 33P-ATP. Format: biochemical. Conditions: JAK3 kinase domain; ATP 1.5 uM, peptide 50 uM, 20 minutes, room temperature, 10% DMSO; read-out: Ic50 h-jak3(810-1124)-sf9-c:no additive.

T1 sequence (P52333 810-1124): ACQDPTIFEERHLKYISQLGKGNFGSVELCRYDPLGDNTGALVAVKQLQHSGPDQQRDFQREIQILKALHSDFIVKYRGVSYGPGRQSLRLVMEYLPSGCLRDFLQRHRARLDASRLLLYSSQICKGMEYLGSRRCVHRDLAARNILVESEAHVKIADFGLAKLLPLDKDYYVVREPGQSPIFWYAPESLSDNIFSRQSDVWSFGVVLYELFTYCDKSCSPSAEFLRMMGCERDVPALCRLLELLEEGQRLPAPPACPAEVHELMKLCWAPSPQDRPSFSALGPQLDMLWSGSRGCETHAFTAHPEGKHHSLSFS
Source text: Determination of IC50 of Janus Kinase (JAK) Inhibition:
Enzymes and peptide substrate used are described below: • JAK1: Recombinant human kinase domain from Invitrogen (Cat # PV4774) • JAK3: Recombinant human kinase domain from Millipore (Cat #14-629) or prepared. • JAK2: Recombinant human kinase domain from Millipore (Cat #14-640) • Substrate: N-terminally biotinylated 14-mer peptide derived from activation loop of JAK1 with sequence of the peptide substrate: Biotin-[sequence]
Assay Conditions Used are Described Below: • Assay Buffer: JAK Kinase Buffer: 50 mM Hepes [pH 7.2], 10 mM MgCl2, 1 mM DTT, • 1 mg/ml BSA. The assay is carried out in this buffer. • Assay Format The kinase activity of all three JAK kinases is measured using a radioactive, end-point assay and with trace amounts of ^33P-ATP. The assays are carried out in 96-well polypropylene plates.
All concentrations are final in the reaction mixture and all incubations are carried at room temperature. […] Final concentration of DMSO in the reaction is 10%. • 2) Compounds are preincubated with enzyme (0.5 nM JAK3 (commercially available), 0.2 nM JAK3 (prepared), 1 nM JAK2, 5 nM JAK1) for 10 minutes. • 3) Reactions are initiated by the addition of a cocktail of the two substrates (ATP and peptide premixed in the JAK Kinase Buffer). In the JAK2/JAK3 assays, ATP and the peptide are used at concentrations of 1.5 uM and 50 uM, respectively. JAK1 assay is carried out at an ATP concentration of 10 uM and a peptide concentration of 50 uM. • 4) The duration of the assay for JAK2 and JAK3 is 20 minutes. JAK1 assay is carried out for 40 minutes. With all three enzymes, reactions are terminated by the addition of 0.5M EDTA to a final concentration of 100 mM. • 5) 25 ul of terminated reactions are transferred to 150 ul of a 7.5% (v/v) slurry of streptavidin-coated sepharose beads in MgCl2- and CaCl2-free 1× Phosphate Buffered Saline containing 50 mM of EDTA in 96-well, 1.2 um MultiScreen-BV filter plates. • 6) After a 30-minute incubation, the beads are washed under vacuum with the following buffers: • a. 3 to 4 washes with 200 ul of 2M NaCl. • b. 3 to 4 washes with 200 ul of 2M NaCl plus 1% (v/v) phosphoric acid. • c. 1 wash with water. • 7) Washed plates are dried in a 60° C. oven for between 1 to 2 hours. • 8) 70 ul of Microscint 20 scintillation fluid is added to each well of filter plates and after at least 30 minutes of incubation, radioactive counts are measured in a Perkin-Elmer microplate scintillation counter.

Consider `C[C@@H]1C[C@H]1c1cnc2[nH]cc(C(=O)NCC(C)(C)CO)c2n1` [Example I-43, 2-((1R,2R)-2-Methyl-cyclopropyl)-5H-pyrrolo[2,3-b]pyrazine-7-carboxylic acid (3-hydroxy-2,2-dimethyl-propyl)-amide], for which the IC50 (in general, the midpoint of a concentration-inhibition curve) was 0.121 µM.
In the case of `CC[C@@H](NC(=O)c1c[nH]c2ncc(C3CC3)nc12)C(C)(C)O` [Example I-44, 2-Cyclopropyl-5H-pyrrolo[2,3-b]pyrazine-7-carboxylic acid ((R)-1-ethyl-2-hydroxy-2-methyl-propyl)-amide] it was 0.046 µM; in that of `CC(C)(CO)NC(=O)c1c[nH]c2ncc(C3CC3)nc12` [Example I-45, 2-Cyclopropyl-5H-pyrrolo[2,3-b]pyrazine-7-carboxylic acid (2-hydroxy-1,1-dimethyl-ethyl)-amide], 0.208 µM; in that of `C[C@H]1C[C@H]1c1cnc2[nH]cc(C(=O)NCC(C)(C)CO)c2n1` [Example I-46, 2-((1R,2S)-2-Methyl-cyclopropyl)-5H-pyrrolo[2,3-b]pyrazine-7-carboxylic acid (3-hydroxy-2,2-dimethyl-propyl)-amide], 0.228 µM.
Under `CC(C)(C)[C@@H](CO)NC(=O)c1c[nH]c2ncc(C3CC3)nc12` [Example I-47, 2-Cyclopropyl-5H-pyrrolo[2,3-b]pyrazine-7-carboxylic acid ((S)-1-hydroxymethyl-2,2-dimethyl-propyl)-amide] stands 0.343 µM; under `C[C@H](NC(=O)c1c[nH]c2ncc(C3CC3)nc12)[C@](C)(O)CC1CC1` [Example I-48, 2-Cyclopropyl-5H-pyrrolo[2,3-b]pyrazine-7-carboxylic acid ((1S,2R)-3-cyclopropyl-2-hydroxy-1,2-dimethyl-propyl)-amide], 0.116 µM; under `CCCC[C@H](NC(=O)c1c[nH]c2ncc(C3CC3)nc12)C(C)(C)O` [Example I-49, 2-Cyclopropyl-5H-pyrrolo[2,3-b]pyrazine-7-carboxylic acid [(S)-1-(1-hydroxy-1-methyl-ethyl)-pentyl]-amide], 0.453 µM.
In the case of `COC(C)(C)CNC(=O)c1c[nH]c2ncc(C3CC3)nc12` [Example I-50, 2-Cyclopropyl-5H-pyrrolo[2,3-b]pyrazine-7-carboxylic acid (2-methoxy-2-methyl-propyl)-amide] it was 0.00903 µM.
In the case of `O=C(NC(CO)CO)c1c[nH]c2ncc(C3CC3)nc12` [Example I-51, 2-Cyclopropyl-5H-pyrrolo[2,3-b]pyrazine-7-carboxylic acid (2-hydroxy-1-hydroxymethyl-ethyl)-amide], the half-inhibitory concentration (IC50) was determined as 0.414 µM.
In the case of `CC(C)(C)[C@H](CO)NC(=O)c1c[nH]c2ncc(C3CC3)nc12` [Example I-52, 2-Cyclopropyl-5H-pyrrolo[2,3-b]pyrazine-7-carboxylic acid ((R)-1-hydroxymethyl-2,2-dimethyl-propyl)-amide] it was 0.0111 µM; in that of `C[C@H](NC(=O)c1c[nH]c2ncc(C3CC3)nc12)[C@@](C)(O)C(F)(F)F` [Example I-53, 2-Cyclopropyl-5H-pyrrolo[2,3-b]pyrazine-7-carboxylic acid ((1S,2R)-3,3,3-trifluoro-2-hydroxy-1,2-dimethyl-propyl)-amide], 0.00838 µM; in that of `C[C@H](NC(=O)c1c[nH]c2ncc(C3CC3)nc12)C(C)(C)C(F)(F)F` [Example I-54, 2-Cyclopropyl-5H-pyrrolo[2,3-b]pyrazine-7-carboxylic acid ((S)-3,3,3-trifluoro-1,2,2-trimethyl-propyl)-amide], 0.00546 µM.
In the case of `CC(C)(C)CNC(=O)c1c[nH]c2ncc(C3CC3)nc12` [Example I-55, 2-Cyclopropyl-5H-pyrrolo[2,3-b]pyrazine-7-carboxylic acid (2,2-dimethyl-propyl)-amide] it was 0.0294 µM; in that of `CC(C)[C@H](CO)NC(=O)c1c[nH]c2ncc(C3CC3)nc12` [Example I-56, 2-Cyclopropyl-5H-pyrrolo[2,3-b]pyrazine-7-carboxylic acid ((R)-1-hydroxymethyl-2-methyl-propyl)-amide], 0.00984 µM; in that of `C[C@@H](CO)NC(=O)c1c[nH]c2ncc(C3CC3)nc12` [Example I-57, 2-Cyclopropyl-5H-pyrrolo[2,3-b]pyrazine-7-carboxylic acid ((S)-2-hydroxy-1-methyl-ethyl)-amide], 0.217 µM.
As to `CC[C@H](CO)NC(=O)c1c[nH]c2ncc(C3CC3)nc12` [Example I-58, 2-Cyclopropyl-5H-pyrrolo[2,3-b]pyrazine-7-carboxylic acid ((R)-1-hydroxymethyl-propyl)-amide], the IC50 was found to be 0.0377 µM.
Under `COCC(C)(C)CNC(=O)c1c[nH]c2ncc(C3CC3)nc12` [Example I-59, 2-Cyclopropyl-5H-pyrrolo[2,3-b]pyrazine-7-carboxylic acid (3-methoxy-2,2-dimethyl-propyl)-amide] stands 0.0589 µM.
As to `C[C@@H](NC(=O)c1c[nH]c2ncc(C3CC3)nc12)C1CCCCC1` [Example I-60, 2-Cyclopropyl-5H-pyrrolo[2,3-b]pyrazine-7-carboxylic acid ((R)-1-cyclohexyl-ethyl)-amide], the IC50 turned out to be 0.015 µM.
Consider `C[C@@H](NC(=O)c1c[nH]c2ncc(C3CC3)nc12)C(C)(C)C` [Example I-62, 2-Cyclopropyl-5H-pyrrolo[2,3-b]pyrazine-7-carboxylic acid ((R)-1,2,2-trimethyl-propyl)-amide], for which the IC50 was determined as 0.00746 µM.
As for `C[C@H](NC(=O)c1c[nH]c2ncc(C3CC3)nc12)[C@](C)(O)C(F)(F)F` [Example I-63, 2-Cyclopropyl-5H-pyrrolo[2,3-b]pyrazine-7-carboxylic acid ((1S,2S)-3,3,3-trifluoro-2-hydroxy-1,2-dimethyl-propyl)-amide], the IC50 worked out at 0.0305 µM.
In the case of `COC[C@H](NC(=O)c1c[nH]c2ncc(C3CC3)nc12)C(C)(C)C` [Example I-64, 2-Cyclopropyl-5H-pyrrolo[2,3-b]pyrazine-7-carboxylic acid ((R)-1-methoxymethyl-2,2-dimethyl-propyl)-amide] it was 0.0351 µM; in that of `COC[C@@H](NC(=O)c1c[nH]c2ncc(C3CC3)nc12)C(C)(C)C` [Example I-65, 2-Cyclopropyl-5H-pyrrolo[2,3-b]pyrazine-7-carboxylic acid ((S)-1-methoxymethyl-2,2-dimethyl-propyl)-amide], 0.262 µM.
Under `C[C@@H](NC(=O)c1c[nH]c2ncc(C3CC3)nc12)c1ccccc1` [Example I-66, 2-Cyclopropyl-5H-pyrrolo[2,3-b]pyrazine-7-carboxylic acid ((R)-1-phenyl-ethyl)-amide] stands 0.05 µM; under `C[C@H](NC(=O)c1c[nH]c2ncc(C3CC3)nc12)c1ccccc1` [Example I-67, 2-Cyclopropyl-5H-pyrrolo[2,3-b]pyrazine-7-carboxylic acid ((S)-1-phenyl-ethyl)-amide], 0.427 µM.
`CC(O)CCNC(=O)c1c[nH]c2ncc(C3CC3)nc12` (centres unmarked) [Example I-68, 2-Cyclopropyl-5H-pyrrolo[2,3-b]pyrazine-7-carboxylic acid (3-hydroxy-butyl)-amide]: the IC50 was 0.358 µM.
As for `CC(CO)CNC(=O)c1c[nH]c2ncc(C3CC3)nc12` (centres unmarked) [Example I-69, 2-Cyclopropyl-5H-pyrrolo[2,3-b]pyrazine-7-carboxylic acid (3-hydroxy-2-methyl-propyl)-amide], the IC50 stood at 0.143 µM.
Under `CC(NC(=O)c1c[nH]c2ncc(C3CC3)nc12)c1ccccn1` (centres unmarked) [Example I-70, 2-Cyclopropyl-5H-pyrrolo[2,3-b]pyrazine-7-carboxylic acid (1-pyridin-2-yl-ethyl)-amide] stands 0.087 µM; under `CC(NC(=O)c1c[nH]c2ncc(C3CC3)nc12)C(C)(C)CO` (centres unmarked) [Example I-71, 2-Cyclopropyl-5H-pyrrolo[2,3-b]pyrazine-7-carboxylic acid (3-hydroxy-1,2,2-trimethyl-propyl)-amide], 0.0038 µM.
As to `C[C@H](NC(=O)c1c[nH]c2ncc(-c3ccccn3)nc12)C(C)(C)C` [Example I-72, 2-Pyridin-2-yl-5H-pyrrolo[2,3-b]pyrazine-7-carboxylic acid ((S)-1,2,2-trimethyl-propyl)-amide], the IC50 turned out to be 0.01 µM.
Under `CC(C)(O)[C@@H](NC(=O)c1c[nH]c2ncc(C3CC3)nc12)C1CC1` [Example I-73, 2-Cyclopropyl-5H-pyrrolo[2,3-b]pyrazine-7-carboxylic acid ((S)-1-cyclopropyl-2-hydroxy-2-methyl-propyl)-amide] stands 0.0924 µM; under `CC(C)(O)[C@H](NC(=O)c1c[nH]c2ncc(C3CC3)nc12)C1CC1` [Example I-74, 2-Cyclopropyl-5H-pyrrolo[2,3-b]pyrazine-7-carboxylic acid ((R)-1-cyclopropyl-2-hydroxy-2-methyl-propyl)-amide], 0.0271 µM; under `CCC(NC(=O)c1c[nH]c2ncc(C3CC3)nc12)C1CCCCC1` (centres unmarked) [Example I-75, 2-Cyclopropyl-5H-pyrrolo[2,3-b]pyrazine-7-carboxylic acid (1-cyclohexyl-propyl)-amide], 0.0687 µM.
As for `CC(C)(C)[C@@H](CC#N)NC(=O)c1c[nH]c2ncc(C3CC3)nc12` [Example I-76, 2-Cyclopropyl-5H-pyrrolo[2,3-b]pyrazine-7-carboxylic acid ((R)-1-cyanomethyl-2,2-dimethyl-propyl)-amide], the IC50 stood at 0.132 µM.
In the case of `CC(C)(C)[C@H](CC#N)NC(=O)c1c[nH]c2ncc(C3CC3)nc12` [Example I-77, 2-Cyclopropyl-5H-pyrrolo[2,3-b]pyrazine-7-carboxylic acid ((S)-1-cyanomethyl-2,2-dimethyl-propyl)-amide] it was 0.0137 µM; in that of `O=C(NC(C1CCCCC1)C1CC1)c1c[nH]c2ncc(C3CC3)nc12` (centres unmarked) [Example I-78, 2-Cyclopropyl-5H-pyrrolo[2,3-b]pyrazine-7-carboxylic acid (cyclohexyl-cyclopropyl-methyl)-amide], 0.0786 µM.
